Source: ChEMBL document CHEMBL1201862, “PubChem BioAssay data set” (2004)
The source made the active and inactive calls.

Columns and labels:
[1] = molecular target: T1, Ubiquitin-conjugating enzyme E2 N (Homo sapiens, UniProt P61088); type: functional;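 also: Dose-response confirmation in a TR-FRET assay detecting UBC13-driven polyubiquitin chain formation, inhibition measured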
T1 sequence (P61088 whole entry): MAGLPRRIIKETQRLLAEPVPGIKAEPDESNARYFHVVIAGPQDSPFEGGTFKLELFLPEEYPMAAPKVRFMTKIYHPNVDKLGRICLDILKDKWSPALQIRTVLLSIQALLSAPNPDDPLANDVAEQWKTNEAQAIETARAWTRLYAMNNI

[2] = molecular target: T2, Short transient receptor potential channel 4 (Mus musculus, UniProt Q9QUQ5); assay: block of DAMGO-driven TRPC4 calcium entry – cell-based, HEK293 TRPC4/mu-opioid, Fluo-4 calcium, dose response (AID 434942); type: functional;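 also: potency of inhibitors blocking the TRPC4 calcium response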
T2 sequence (Q9QUQ5 whole entry): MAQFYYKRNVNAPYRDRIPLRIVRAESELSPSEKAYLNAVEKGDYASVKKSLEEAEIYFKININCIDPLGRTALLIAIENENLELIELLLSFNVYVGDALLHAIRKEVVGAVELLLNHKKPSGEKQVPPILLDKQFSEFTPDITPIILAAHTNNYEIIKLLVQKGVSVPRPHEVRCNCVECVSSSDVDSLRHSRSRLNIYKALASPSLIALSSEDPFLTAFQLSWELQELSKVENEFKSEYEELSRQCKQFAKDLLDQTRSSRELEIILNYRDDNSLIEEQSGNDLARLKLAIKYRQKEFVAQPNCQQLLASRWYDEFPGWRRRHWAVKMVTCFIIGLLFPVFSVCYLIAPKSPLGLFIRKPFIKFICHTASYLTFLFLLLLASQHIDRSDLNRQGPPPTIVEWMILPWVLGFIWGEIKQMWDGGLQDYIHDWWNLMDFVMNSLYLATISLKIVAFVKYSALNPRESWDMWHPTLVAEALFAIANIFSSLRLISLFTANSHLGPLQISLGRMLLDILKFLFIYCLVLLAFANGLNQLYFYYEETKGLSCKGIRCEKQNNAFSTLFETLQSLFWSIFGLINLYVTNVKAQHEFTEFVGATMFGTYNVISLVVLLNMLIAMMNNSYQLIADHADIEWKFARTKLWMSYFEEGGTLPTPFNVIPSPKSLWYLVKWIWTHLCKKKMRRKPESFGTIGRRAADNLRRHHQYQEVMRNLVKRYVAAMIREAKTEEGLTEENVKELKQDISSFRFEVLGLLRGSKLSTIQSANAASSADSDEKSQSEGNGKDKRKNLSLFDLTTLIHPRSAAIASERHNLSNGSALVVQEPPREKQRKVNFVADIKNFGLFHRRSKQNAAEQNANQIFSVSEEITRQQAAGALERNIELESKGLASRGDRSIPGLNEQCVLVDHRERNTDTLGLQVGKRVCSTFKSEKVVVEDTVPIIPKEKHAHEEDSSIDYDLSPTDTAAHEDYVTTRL

[3] = molecular target: T3, Heat shock factor protein 1 (Mus musculus, UniProt P38532); assay: enhancement of HSF1-driven luciferase signal – cell-based, NIH3T3, luminescence, dose retest, confirmation (AID 435004); type: functional;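 also: stress induced by proteasome inhibitor MG132 added 30 min after compound; luciferase reporter driven by HSF1 response element in NIH3T3 cells; actives raise luminescence as potentiators of the MG132 stress response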
T3 sequence (P38532 whole entry): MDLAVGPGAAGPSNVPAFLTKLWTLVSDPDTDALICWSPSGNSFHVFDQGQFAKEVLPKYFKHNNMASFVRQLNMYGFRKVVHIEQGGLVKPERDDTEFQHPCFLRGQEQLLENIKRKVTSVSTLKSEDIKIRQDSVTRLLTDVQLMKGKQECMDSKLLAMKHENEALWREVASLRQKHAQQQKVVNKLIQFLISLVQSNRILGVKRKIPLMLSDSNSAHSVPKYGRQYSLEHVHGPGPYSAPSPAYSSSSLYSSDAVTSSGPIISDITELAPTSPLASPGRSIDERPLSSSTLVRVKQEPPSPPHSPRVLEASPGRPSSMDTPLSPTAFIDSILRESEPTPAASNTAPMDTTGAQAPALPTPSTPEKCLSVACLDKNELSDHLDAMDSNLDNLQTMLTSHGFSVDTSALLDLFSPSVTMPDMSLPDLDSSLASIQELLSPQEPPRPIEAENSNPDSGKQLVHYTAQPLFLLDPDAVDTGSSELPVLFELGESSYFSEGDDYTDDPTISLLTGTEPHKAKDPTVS

[4] = test system: INS1; assay: INS-1E survival protection against cytokine death – cell-based, luminescence, retest, dose response (AID 449756); type: functional; conditions: Rattus norvegicus;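 also: cell death triggered by IL-1 beta plus TNF-alpha plus IFN-gamma mixture; protective hits raise ATP signal compared with cytokine alone wells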
[5] = reduction of Shn3 3'UTR-driven luciferase in osteoblasts – cell-based, Clone20 osteoblasts, firefly luciferase, cherry-picked, dose response (AID 624132); type: functional;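 also: firefly luciferase luminescence from reporter carrying the Shn3 3'UTR in osteoblasts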
[6] = non-specific 3'UTR reporter inhibition in Clone20-Shn3RL – cell-based, Renilla luciferase, cherry-picked, counter-screen for Shn3 inhibitor project, dose response (AID 624133); type: functional
[7] = molecular target: Cytochrome P450 2C19 (Homo sapiens, UniProt P33261); assay: Cytochrome panel assay with activity outcomes. Panel member name: p450-cyp2c19 Compounds with AC50 equal or less than 10 uM are considered active; type: functional; conditions: read-out: AC50
[8] = test system: H9c2; assay: cells; type: functional, cell-based; conditions: Rattus norvegicus, H9c2, Myocardium;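 also: confirmatory concentration-response retest of ultra-high-throughput screening hits for modulation of myocardial damage; cell death induced by hydrogen peroxide oxidative stress; compound pretreatment for 60 min then peroxide exposure for 2 h; potency is for protecting the cells against peroxide damage rather than for killing them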
[9] = molecular target: Cytochrome P450 2D6 (Homo sapiens, UniProt P10635);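 also: CYP2D6 member of a cytochrome P450 panel assay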
[10] = molecular target: Cytochrome P450 2C9 (Homo sapiens, UniProt P11712)
[11] = test system: Streptococcus sp. 'group A'; assay: Streptococcus pyogenes SK(-)GAS viability under kanamycin – luminescence, BacTiterGlo, confirmation, counter-screen for streptokinase expression inhibitor project, dose response (AID 1900); type: functional, organism-based
[12] = molecular target: T4, Streptokinase A (Streptococcus pyogenes serotype M1, UniProt P10520); assay: viability-normalized secreted streptokinase activity reduction – plasminogen activation absorbance, OD405, dose response (AID 1914); type: functional, Streptococcus pyogenes M1 GAS;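 also: secreted streptokinase activity via plasminogen activation per viability signal from cell pellet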
T4 sequence (P10520 whole entry): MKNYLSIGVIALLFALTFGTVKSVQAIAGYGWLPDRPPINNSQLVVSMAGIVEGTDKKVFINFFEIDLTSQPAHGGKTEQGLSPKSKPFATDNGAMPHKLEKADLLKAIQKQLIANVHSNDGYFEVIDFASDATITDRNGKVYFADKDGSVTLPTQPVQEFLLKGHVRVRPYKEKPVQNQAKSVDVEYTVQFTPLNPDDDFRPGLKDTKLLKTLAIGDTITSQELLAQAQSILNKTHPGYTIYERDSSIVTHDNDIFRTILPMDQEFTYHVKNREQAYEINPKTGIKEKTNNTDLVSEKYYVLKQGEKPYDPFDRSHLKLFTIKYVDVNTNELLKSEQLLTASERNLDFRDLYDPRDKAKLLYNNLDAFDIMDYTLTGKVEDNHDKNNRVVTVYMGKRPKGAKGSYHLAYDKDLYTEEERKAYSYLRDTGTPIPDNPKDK

[13] = test system: Streptococcus; assay: GAS UMAA2166 growth inhibition – luminescence, BacTiterGlo, counter-screen for streptokinase expression inhibitor project, dose response (AID 1915); type: functional, organism-based;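 also: potency for reduction of bacterial viability or growth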
[14] = test system: BJ; assay: BJ-TERT fibroblast viability loss – cell-based, RAS-independent, luminescence, dose response (AID 1933); type: functional; conditions: Homo sapiens
[15] = test system: BJ; assay: cells; type: functional, cell-based; conditions: Homo sapiens
[16] = test system: BJ; assay: BJ-TERT-LT-ST fibroblast viability loss – cell-based, RAS-independent, luminescence, dose response (AID 1935); type: functional; conditions: Homo sapiens;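 also: BJ fibroblasts immortalized with TERT plus LT and ST oncogenes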
[17] = DRD fibroblast viability loss – cell-based, non-viral oncogenic, luminescence, dose response (AID 1934); type: functional; conditions: Homo sapiens
[18] = molecular target: FAD-linked sulfhydryl oxidase ALR (Homo sapiens, UniProt P55789); assay: ALR-catalysed DTT oxidation blockers – biochemical, H2O2 detection, luminescence, cherry-pick, dose response (AID 493248)
[19] = molecular target: T5, Rac GTPase-activating protein 1 (Homo sapiens, UniProt Q9H0H5); assay: blockers of MgcRacGAP-driven Rac1 GTP hydrolysis – biochemical, ADP Hunter fluorescence, primary and confirmatory, confirmation (AID 624330); type: functional
T5 sequence (Q9H0H5 whole entry): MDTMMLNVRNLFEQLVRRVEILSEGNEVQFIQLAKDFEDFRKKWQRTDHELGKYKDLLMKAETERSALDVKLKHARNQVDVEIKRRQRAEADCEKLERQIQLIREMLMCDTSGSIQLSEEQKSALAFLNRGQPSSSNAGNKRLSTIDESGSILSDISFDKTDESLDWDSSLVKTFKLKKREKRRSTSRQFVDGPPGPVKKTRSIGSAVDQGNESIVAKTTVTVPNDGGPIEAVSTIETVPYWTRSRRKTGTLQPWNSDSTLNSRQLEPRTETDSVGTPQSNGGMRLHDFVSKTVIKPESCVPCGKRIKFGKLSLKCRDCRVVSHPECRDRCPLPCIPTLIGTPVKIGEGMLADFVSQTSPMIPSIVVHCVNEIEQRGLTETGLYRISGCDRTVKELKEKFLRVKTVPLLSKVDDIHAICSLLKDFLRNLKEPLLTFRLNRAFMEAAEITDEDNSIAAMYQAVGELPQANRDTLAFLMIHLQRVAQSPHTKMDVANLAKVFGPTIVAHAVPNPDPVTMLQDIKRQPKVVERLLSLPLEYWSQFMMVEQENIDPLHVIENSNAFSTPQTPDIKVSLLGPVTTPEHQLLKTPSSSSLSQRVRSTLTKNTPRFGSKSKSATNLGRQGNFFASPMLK

Sequence of Cytochrome P450 2D6 (P10635 whole entry): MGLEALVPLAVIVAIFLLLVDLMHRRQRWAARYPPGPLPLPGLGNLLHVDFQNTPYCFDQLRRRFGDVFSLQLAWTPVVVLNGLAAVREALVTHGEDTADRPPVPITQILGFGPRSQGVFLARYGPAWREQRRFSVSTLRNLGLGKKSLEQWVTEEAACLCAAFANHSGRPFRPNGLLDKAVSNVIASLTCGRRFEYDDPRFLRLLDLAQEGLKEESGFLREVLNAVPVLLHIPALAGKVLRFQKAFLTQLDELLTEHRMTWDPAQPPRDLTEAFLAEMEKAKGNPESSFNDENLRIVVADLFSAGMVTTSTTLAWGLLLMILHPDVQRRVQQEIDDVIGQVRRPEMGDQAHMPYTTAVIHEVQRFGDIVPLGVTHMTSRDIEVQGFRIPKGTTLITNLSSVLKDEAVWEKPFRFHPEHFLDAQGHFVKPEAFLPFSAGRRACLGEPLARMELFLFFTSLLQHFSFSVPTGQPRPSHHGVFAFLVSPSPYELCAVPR
Sequence of Cytochrome P450 2C9 (P11712 whole entry): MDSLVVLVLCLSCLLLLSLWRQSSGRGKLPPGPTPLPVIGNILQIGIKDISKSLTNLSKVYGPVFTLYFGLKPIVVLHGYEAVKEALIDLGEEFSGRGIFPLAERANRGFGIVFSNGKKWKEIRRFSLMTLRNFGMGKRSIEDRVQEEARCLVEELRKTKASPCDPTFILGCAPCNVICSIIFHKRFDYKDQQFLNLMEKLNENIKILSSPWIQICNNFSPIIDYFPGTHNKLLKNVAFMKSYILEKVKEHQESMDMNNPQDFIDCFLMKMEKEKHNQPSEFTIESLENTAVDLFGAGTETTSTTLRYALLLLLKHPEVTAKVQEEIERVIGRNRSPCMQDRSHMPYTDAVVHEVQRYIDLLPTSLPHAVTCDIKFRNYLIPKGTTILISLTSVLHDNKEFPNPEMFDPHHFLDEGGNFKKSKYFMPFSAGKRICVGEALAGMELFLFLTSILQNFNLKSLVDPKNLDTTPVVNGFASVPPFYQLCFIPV
Sequence of Cytochrome P450 2C19 (P33261 whole entry): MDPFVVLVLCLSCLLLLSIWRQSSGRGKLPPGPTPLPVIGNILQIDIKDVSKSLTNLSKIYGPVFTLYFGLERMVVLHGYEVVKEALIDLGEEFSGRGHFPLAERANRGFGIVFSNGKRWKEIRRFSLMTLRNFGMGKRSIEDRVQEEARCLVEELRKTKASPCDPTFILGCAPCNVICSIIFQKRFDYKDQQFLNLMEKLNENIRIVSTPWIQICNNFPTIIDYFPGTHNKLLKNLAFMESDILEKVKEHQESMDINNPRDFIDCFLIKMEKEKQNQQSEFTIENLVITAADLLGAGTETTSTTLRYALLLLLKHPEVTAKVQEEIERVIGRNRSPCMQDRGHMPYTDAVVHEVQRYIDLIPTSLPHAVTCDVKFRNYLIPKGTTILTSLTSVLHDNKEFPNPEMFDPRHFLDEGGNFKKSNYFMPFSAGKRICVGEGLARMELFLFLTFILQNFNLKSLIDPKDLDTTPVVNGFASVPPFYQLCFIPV
Sequence of FAD-linked sulfhydryl oxidase ALR (P55789 whole entry): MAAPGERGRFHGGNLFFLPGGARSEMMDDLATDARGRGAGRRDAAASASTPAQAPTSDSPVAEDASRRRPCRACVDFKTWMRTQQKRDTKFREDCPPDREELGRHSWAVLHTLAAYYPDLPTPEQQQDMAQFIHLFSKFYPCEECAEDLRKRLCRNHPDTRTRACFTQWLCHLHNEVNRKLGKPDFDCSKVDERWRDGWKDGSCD

SMILES: C#CCOCCOCCOCCNc1nc(N2CCN(C(=O)[C@H](CCCCN)n3cc([C@@H](N)CO)nn3)CC2)nc(N2CCN(C(=O)[C@H](CCCCN)n3cc([C@@H](N)CC(C)C)nn3)CC2)n1
- IC50 [1]: > 20 µM (inactive)

SMILES: CN=C(S)N1CCN(C(c2ccccc2)c2ccccc2)CC1
- EC50 [2]: 8.41 µM (active)

SMILES: Clc1ccccc1CSc1nc2cc[nH]cc-2n1
- EC50 [2]: 2.99 µM (active)

SMILES: CCS(=O)(=O)c1ncc(Cl)c(C(=O)Nc2ccccc2OC)n1
- EC50 [3]: 8.04 µM (active)
- AC50 [4]: 38.9 µM (active)
- AC50 [5]: 3.71 µM (active)
- AC50 [6]: 4.81 µM (active)

SMILES: C=CC[C@@H]1Cc2c(Br)ccc(Br)c2[C@@H](CC=C)N1
- EC50 [3]: > 260 µM (inactive)

SMILES: COc1ccc(N(CC(=O)N/N=C/c2cccs2)S(=O)(=O)c2ccc(OC)c(OC)c2)cc1
- AC50 [7]: 0.0178 µM (inconclusive)
- IC50 [8]: > 79 µM (inactive)
- AC50 [9]: 31.6 µM (inconclusive)
- AC50 [10]: 4.47 µM (inconclusive)

SMILES: CCCCCCCCCCCC(=O)c1c(O)cccc1O
- EC50 [11]: 1.53 µM (active)
- EC50 [12]: > 150 µM (not active)
- EC50 [13]: 7.15 µM (active)
- EC50 [3]: 60.1 µM (active)

SMILES: COc1cc(C(=O)Nc2ccc(C)cc2)c2ccccc2n1
- EC50 [14]: 1.15 µM (inconclusive)
- EC50 [15]: 22.9 µM (active)
- EC50 [16]: 12.8 µM (inconclusive)
- EC50 [17]: 0.707 µM (inconclusive)

SMILES: Nc1cc(C(F)(F)F)ccc1Nc1ccccc1
- EC50 [2]: 4.22 µM (active)
- AC50 [18]: 14.6 µM (active)

SMILES: Cc1ccc(C)c(N2CCN(CCCNC(=O)CCC(=O)N3CCOc4ccc(Cl)cc43)CC2)c1
- IC50 [1]: > 20 µM (inactive)

SMILES: COc1ccc(CN2CCN(Cc3ccccc3F)CC2)c(OC)c1
- EC50 [2]: 4.22 µM (active)
- IC50 [19]: 70.3 µM (active)

SMILES: CCOc1cc(/C=N/NC(N)=O)cc(Br)c1OCC(=O)Nc1cccc2ccccc12
- IC50 [8]: > 79 µM (inactive)

SMILES: COCCCN(Cc1ccco1)C(=O)Cn1ncc2c3ccccc3nc-2c1O
- IC50 [8]: > 79 µM (inactive)

SMILES: COc1ccc(-c2cc(C(=O)N(C)Cc3ccc(OC)c(OC)c3OC)c3ccccc3n2)cc1OC
- IC50 [8]: > 79 µM (inactive)

SMILES: Cc1cn(Cc2ccccc2Cn2cc(C)c(=O)[nH]c2=O)c(=O)[nH]c1=O
- EC50 [3]: > 260 µM (inactive)

SMILES: CCn1c(NCc2c[nH]c3ccccc23)nc2ccccc21
- EC50 [2]: 3.35 µM (active)

SMILES: CC(C)Cn1c(N)c(C(=O)COC(=O)CCc2nc(O)c3ccccc3n2)c(=O)n(C)c1=O
- IC50 [8]: > 79 µM (inactive)

SMILES: CN(CC(=O)Nc1ccc(F)cc1)C(=O)CCc1nc(O)c2ccccc2n1
- IC50 [8]: > 79 µM (inactive)

SMILES: Cc1cc(C)cc(OCC(=O)Nc2cccc(-c3nc4ncccc4o3)c2)c1
- IC50 [8]: > 79 µM (inactive)

SMILES: Cc1ccc(CNC(=O)[C@H](C)N2C(=O)N3CCc4c([nH]c5ccccc45)[C@@]3(C)C2=O)cc1
- EC50 [3]: > 260 µM (inactive)

SMILES: O=c1c2ccccc2sc2nc(C3CCCCC3)n(Cc3ccco3)c(=O)c12
- EC50 [3]: 47.8 µM (active)

SMILES: Cc1cccc(C(=O)Nc2sc(-c3ccccc3)cc2C(=O)O)c1
- EC50 [2]: 2.11 µM (active)

SMILES: Oc1nc2cccc(Cl)c2c2ccccc12
- IC50 [8]: 39.6 µM (inactive)

SMILES: CC(=O)/N=c1\sccn1CC(=O)c1ccc([N+](=O)[O-])cc1
- EC50 [3]: > 260 µM (inactive)
- AC50 [9]: 14.1 µM (inconclusive)
- AC50 [10]: 0.0794 µM (inconclusive)

SMILES: COc1ccc(/C=C/C(=O)Oc2cc(O)cc(O)c2)cc1
- EC50 [2]: 3.76 µM (active)

SMILES: COC(=O)c1cc(S(=O)(=O)C(C)C)c([S+](C)[O-])s1 (stereo not drawn)
- EC50 [3]: 93.8 µM (active)

SMILES: CCC(C)[C@H](Nc1nc(-c2ccccc2)nc2c1oc1ccccc12)C(=O)O (stereo partly drawn)
- EC50 [2]: 7.5 µM (active)
